pKi: −log10 of the molar value. Where two headings read alike, the source gives them in different places. Blank lines part the entries; values can stand above or below the compound they belong to.
Legend:
M3 muscarinic receptor = biological target: T1, M3 muscarinic receptor (Homo sapiens, UniProt P20309); assay: M3 binding assay ([3H]-scopolamine, N-methyl chloride displacement)
T1 construct: purchased PerkinElmer, Inc., Wellesley, Mass; host or cells: CHO cells

male Wistar rats [1] = assay type: in vivo; settings: oral
Description: The Irwin screen can provide useful information on potential side effects of compounds on general physiological and behavioural functions. The screen was conducted by administering the test compounds orally in 0.25% aqueous methylcellulose using male Wistar rats, a frequently used species in such studies and for which background data are readily available.
The Irwin screen tests for numerous parameters in animals that have been administered the test compound. For example, the screen can include: in-cage effects, e.g., dispersion, respiratory rate, locomotor activity, restlessness, fighting, alertness, apathy, and exophthalmus; in-arena effects, e.g., transfer arousal, spatial locomotion, ptosis, startle, tail elevation, piloerection, touch escape, positional passivity, catalepsy, tighting reflex, visual placing, grip strength, pinna, corneal, pain response, and wire manoeuvre; parameters observed in handling, e.g., cyanosis, cutaneous blood flow, hypothermia, body tone, pupil size, light-pupil response, lacrimation, grooming, red staining, salivation, and provoked biting; general scores e.g., fearfulness, irritability, abnormal gait, abnormal body carriage, tremors, twitches, convulsions, bizarre behaviour, writhing, vocalisation, diarrhoea, number of defaecations, number of urinations, moribund, lethality, and abnormalities detected. Further details can be found in Irwin, S; Comprehensive observational assessment: I a. A systematic, quantitative procedure for assessing the behavioural and physiological state of the mouse. […]

hERG channel = hERG channel (Homo sapiens, UniProt Q12809)
Chain of hERG channel (Q12809 whole entry): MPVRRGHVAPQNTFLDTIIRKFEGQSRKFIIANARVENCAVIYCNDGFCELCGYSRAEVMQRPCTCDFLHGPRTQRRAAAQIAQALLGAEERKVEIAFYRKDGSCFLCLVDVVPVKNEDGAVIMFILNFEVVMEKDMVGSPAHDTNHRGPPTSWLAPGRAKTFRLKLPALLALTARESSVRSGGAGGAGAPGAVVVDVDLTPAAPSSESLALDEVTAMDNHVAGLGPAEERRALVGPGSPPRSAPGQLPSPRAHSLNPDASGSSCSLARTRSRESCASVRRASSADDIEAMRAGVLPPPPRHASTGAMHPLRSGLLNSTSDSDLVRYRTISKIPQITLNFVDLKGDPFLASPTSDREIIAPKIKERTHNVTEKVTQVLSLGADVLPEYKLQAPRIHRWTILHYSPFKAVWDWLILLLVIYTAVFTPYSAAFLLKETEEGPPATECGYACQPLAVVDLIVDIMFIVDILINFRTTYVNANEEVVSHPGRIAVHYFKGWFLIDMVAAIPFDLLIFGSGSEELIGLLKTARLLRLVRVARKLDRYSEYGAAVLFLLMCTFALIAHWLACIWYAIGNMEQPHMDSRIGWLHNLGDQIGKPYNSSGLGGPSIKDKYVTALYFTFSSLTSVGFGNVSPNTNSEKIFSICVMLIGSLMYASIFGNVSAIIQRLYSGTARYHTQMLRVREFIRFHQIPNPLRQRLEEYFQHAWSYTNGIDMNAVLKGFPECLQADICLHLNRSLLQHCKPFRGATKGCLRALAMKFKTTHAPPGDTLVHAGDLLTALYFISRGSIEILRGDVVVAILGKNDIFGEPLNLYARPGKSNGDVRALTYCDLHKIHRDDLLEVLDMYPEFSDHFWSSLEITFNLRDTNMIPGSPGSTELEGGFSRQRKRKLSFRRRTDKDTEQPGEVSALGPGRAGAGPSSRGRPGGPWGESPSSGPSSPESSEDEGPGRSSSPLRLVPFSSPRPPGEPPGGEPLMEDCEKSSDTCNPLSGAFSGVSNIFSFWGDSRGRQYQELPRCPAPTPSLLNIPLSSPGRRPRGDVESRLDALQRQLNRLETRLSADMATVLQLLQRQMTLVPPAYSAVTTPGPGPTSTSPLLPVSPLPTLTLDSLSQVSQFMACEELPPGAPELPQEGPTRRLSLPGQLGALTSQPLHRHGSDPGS

male Wistar rats [2] = assay: SCORE-2000 sleep-wakefulness, locomotor activity and body temperature monitoring; settings: oral, CT-18
M2 muscarinic receptor = biological target: T2, M2 muscarinic receptor (Homo sapiens, UniProt P08172); assay: M2 binding assay ([3H]-scopolamine, N-methyl chloride displacement)
T2 construct: purchased PerkinElmer, Inc., Wellesley, Mass; host or cells: CHO cells
T2 sequence (P08172 1-466): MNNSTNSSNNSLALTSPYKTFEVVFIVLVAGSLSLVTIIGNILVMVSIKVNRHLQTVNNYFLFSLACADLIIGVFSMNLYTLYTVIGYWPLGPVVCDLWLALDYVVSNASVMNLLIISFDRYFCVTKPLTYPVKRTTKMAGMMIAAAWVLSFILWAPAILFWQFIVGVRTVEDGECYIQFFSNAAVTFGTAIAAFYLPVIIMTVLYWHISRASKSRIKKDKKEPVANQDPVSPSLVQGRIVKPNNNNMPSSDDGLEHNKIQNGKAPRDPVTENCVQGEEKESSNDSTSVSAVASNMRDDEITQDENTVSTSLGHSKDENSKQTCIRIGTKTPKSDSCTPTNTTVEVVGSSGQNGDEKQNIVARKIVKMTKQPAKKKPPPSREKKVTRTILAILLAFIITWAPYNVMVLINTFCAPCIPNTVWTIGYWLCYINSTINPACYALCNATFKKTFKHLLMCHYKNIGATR

Pharmacokinetics in rats = assay type: in vivo, rat; settings: 3 mg/kg
Description: HY2901 was administered to rats, dogs, and cynomolgus monkeys at a dose of 3 mg/kg orally and intravenously. Plasma samples were collected from all species for pharmacokinetic analysis. […] HY2901 is 75% protein bound in rat plasma and 60% protein bound in human plasma.

[3] = Excretion in urine of animal species; assay type: in vivo
[4] = In vitro rate of metabolism in rat hepatocyte cultures; assay type: in vitro ADME
Description: (§1) Cytochrome P450 inhibition was studied with HY2901 in vitro. […] In addition, the in vitro rate of metabolism in rat, dog, monkey, and human hepatocyte cultures was determined for HY2901.

[5] = In vitro rate of metabolism in human hepatocyte cultures; assay type: in vitro ADME
Description: as §1

telemetered Beagle dogs = assay: ECG and arterial blood pressure in telemetered Beagle dogs; assay type: in vivo, dog
Description: To determine if HY2901 could produce any changes in QT interval, the compound was studied in telemetered Beagle dogs. Dogs were implanted with devices to continuously monitor ECG and arterial blood pressure. Dogs (groups of 4) were studied in a Latin square cross-over design, with each dog receiving 3 different doses and a placebo. Two studies were conducted with doses of 0.3, 1, 3, 10, and 30 mg/kg. […] The tachycardia persisted for 6-8 hours postdose at 0.3 and 1 mg/kg. A ceiling effect to the heart rate increase seemed to exist with heart rates peaking at approximately 150-160 in both the 10 and 30 mg/kg dose groups.

Crl: CD(SD)IGS BR rats = assay: Acute rat study (toxicity and MTD, oral gavage); assay type: in vivo
Description: The purpose of this study was to evaluate the toxicity and maximum tolerated dose (MTD) of the test articles when given via oral gavage to rats. Male Crl: CD®(SD)IGS BR rats (3/group) were assigned to 5 groups. At initiation of dosing, animals were approximately 7 weeks old with body weights ranging from 172 to 206 g. Each group received either 50, 100, 150, 200, or 250 mg/kg of HY2901 once daily for 5 days. All surviving animals were sacrificed on Day 6. Assessment of toxicity was based on mortality, clinical observations, and body weight data.

purebred Beagles [6] = assay: Acute dog study (toxicity and MTD, escalating oral doses); assay type: in vivo
Crl:CD(SD)IGS BR rats = assay: 14-Day rat study with recovery; assay type: in vivo
Description: The purpose of this study was to evaluate the toxicity of HY2901 when administered via oral gavage to rats for at least 14 days and to assess the reversibility, persistence, or delayed occurrence of any effects after a recovery period of up to 14 days.
Male and female Crl:CD®(SD)IGS BR rats were assigned to seven groups, four main study groups and three groups for toxicokinetics. Each group received dose preparations containing 0.25% methylcellulose, 400 cps in 200 mM acetate buffer, or 10, 30, or 150 mg of test article/kg of body weight (mg/kg/day) at a dose volume of 5 mL/kg.
Assessment of toxicity was based on mortality, clinical and ophthalmic observations, body weights, food consumption, clinical pathology, organ weights, and macroscopic and microscopic findings. Blood samples were collected for toxicokinetic evaluation.

purebred Beagles [7] = assay: 14-Day dog study with recovery phase; assay type: in vivo
Description: The toxicity and the toxicokinetics of HY2901 when administered daily via oral gavage (Phase 1) or capsules (Phase 2) to dogs for at least 14 days was determined. The reversibility, persistence, or delayed occurrence of observable effects following a 7-day (Phase 1) or 14-day (Phase 2) recovery period was also assessed. Doses of 3, 10, 30, and 70 mg/kg/day were studied.

M1 muscarinic receptor = biological target: T3, M1 muscarinic receptor (Homo sapiens, UniProt P11229); assay: M1 binding assay ([3H]-scopolamine, N-methyl chloride displacement)
T3 construct: purchased PerkinElmer, Inc., Wellesley, Mass; host or cells: CHO cells
T3 sequence (P11229 1-460): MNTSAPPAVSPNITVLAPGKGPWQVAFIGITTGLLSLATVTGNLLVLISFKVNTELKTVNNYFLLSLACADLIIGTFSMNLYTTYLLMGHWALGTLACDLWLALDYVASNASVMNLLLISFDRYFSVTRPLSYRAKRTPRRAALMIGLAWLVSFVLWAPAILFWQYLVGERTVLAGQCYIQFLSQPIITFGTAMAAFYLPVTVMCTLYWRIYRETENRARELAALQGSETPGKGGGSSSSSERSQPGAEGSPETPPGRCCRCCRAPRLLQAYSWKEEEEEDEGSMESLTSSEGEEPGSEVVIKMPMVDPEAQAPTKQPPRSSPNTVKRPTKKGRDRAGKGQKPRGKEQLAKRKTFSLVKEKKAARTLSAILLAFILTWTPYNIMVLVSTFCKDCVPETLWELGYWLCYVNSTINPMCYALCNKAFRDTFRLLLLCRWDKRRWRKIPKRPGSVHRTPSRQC

H1 histamine receptor = biological target: T4, H1 histamine receptor (Bos taurus, UniProt P30546); settings: reference compounds; unit inferred; read-out: Ki, H1 binding assay reference compounds; cited from earlier work
T4 construct: the receptors were obtained from bovine cerebellar membrane tissue; from tissue; host or cells: bovine cerebellar membranes
T4 sequence (P30546 whole entry): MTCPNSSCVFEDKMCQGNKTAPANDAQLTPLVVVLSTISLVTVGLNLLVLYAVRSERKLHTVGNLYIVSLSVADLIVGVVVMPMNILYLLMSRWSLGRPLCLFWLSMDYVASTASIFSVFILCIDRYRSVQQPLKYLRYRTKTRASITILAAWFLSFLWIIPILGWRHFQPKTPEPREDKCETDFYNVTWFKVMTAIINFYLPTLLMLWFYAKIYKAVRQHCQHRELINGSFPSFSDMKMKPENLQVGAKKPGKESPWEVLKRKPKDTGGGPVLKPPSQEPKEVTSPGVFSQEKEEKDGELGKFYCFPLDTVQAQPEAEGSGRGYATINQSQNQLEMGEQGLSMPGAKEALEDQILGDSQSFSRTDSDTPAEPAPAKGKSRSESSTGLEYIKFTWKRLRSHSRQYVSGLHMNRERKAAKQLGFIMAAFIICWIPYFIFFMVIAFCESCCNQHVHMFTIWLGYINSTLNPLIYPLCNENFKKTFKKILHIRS

[8] = 50-250 mg/kg once daily for 5 days

T1 sequence (P20309 whole entry): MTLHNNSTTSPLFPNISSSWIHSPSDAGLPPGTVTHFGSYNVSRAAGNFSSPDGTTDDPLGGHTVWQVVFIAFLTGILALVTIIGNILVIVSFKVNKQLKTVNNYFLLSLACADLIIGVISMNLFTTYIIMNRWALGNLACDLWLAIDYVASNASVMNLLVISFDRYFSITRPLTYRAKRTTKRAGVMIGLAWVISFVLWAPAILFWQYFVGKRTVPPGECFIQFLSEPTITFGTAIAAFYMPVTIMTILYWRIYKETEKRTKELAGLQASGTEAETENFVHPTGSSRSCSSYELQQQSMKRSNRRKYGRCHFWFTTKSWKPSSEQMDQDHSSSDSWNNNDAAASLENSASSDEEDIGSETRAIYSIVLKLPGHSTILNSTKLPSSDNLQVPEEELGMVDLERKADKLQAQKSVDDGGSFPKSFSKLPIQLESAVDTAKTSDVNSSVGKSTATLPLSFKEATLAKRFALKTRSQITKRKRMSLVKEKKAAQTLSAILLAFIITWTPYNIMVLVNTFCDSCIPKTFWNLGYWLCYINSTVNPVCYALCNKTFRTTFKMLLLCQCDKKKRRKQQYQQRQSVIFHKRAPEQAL

pKi (M3 muscarinic receptor): < 5.00
SMILES: CC(C)(CCN1CCC(=C2c3ccccc3COc3ccccc32)CC1)C(=O)O [Compound 70a]

SMILES: O=C(O)C1(CCN2CCC(=C3c4ccccc4COc4ccccc43)CC2)CC1 [Compound 70b]
Side effects in Irwin screen (male Wistar rats [1]; 10 mg/kg dose): clean
Side effects in Irwin screen (male Wistar rats [1]; 30 mg/kg dose): clean
Side effects in Irwin screen (male Wistar rats [1]; 100 mg/kg dose): some side effects
hERG blocking (hERG channel): 50.2%
LUSB (male Wistar rats [2]; dose 10 mg/kg): 8.3 min
NREM (male Wistar rats [2]; dose 10 mg/kg): 33.7 min
LUSB (male Wistar rats [2]; dose 30 mg/kg): 13.8 min
NREM (male Wistar rats [2]; dose 30 mg/kg): 43.2 min

SMILES: C[N+]1(C)C2CC(OC(=O)C(CO)c3ccccc3)CC1C1OC12.[Br-] (single isomer, unassigned; (-)) [scopolamine, MethylBr, (−)-scopolamine, methyl-, bromide, reference compound]
Slope, M2 binding curve (M2 muscarinic receptor): −0.89

SMILES: CC(C)(CN1CCC(=C2c3ccc(F)cc3COc3ccccc32)CC1)C(=O)O [Compound 49a]
absorption after oral administration (Pharmacokinetics in rats; all species (rat, dog, cynomolgus monkey)): rapidly and highly absorbed
Peak plasma levels (Pharmacokinetics in rats; rats, most efficacious dose in the sleep assay): less than 1.5 mM
drug and metabolites in urine [3]: Unchanged HY2901, as well as metabolites, has been found in the urine
metabolism by hepatocytes [4]: extensively metabolized
metabolism by hepatocytes [5]: little metabolism
changes in QT or corrected QT interval (telemetered Beagle dogs; 0.3, 1, 3, 10 and 30 mg/kg, any dose): no changes
heart rate effect (telemetered Beagle dogs; 0.3-30 mg/kg, intravenous or oral): dose-related sinus tachycardia
persistence of tachycardia postdose (telemetered Beagle dogs; 0.3 and 1 mg/kg): 6 to 8 h
peak heart rate (telemetered Beagle dogs; 10 and 30 mg/kg dose groups): 150-160
persistence of sinus tachycardia (telemetered Beagle dogs; higher doses): 10 to 12 h
blood pressure (telemetered Beagle dogs; paralleled the tachycardia): slight increase
hypoactivity (Crl: CD(SD)IGS BR rats; [8]): observed in all rats
incidence and duration of ataxia (Crl: CD(SD)IGS BR rats; [8]): dose-response relationship was observed
Day 6 body weights (Crl: CD(SD)IGS BR rats; two 250 mg/kg rats): slightly decreased
clinical signs (purebred Beagles [6]; 25 mg/kg): No clinical signs of toxicity
clinical signs (purebred Beagles [6]; 40 mg/kg on Day 5): body tremors, mild to moderate ataxia, excessive salivation and hypoactivity
clinical signs (purebred Beagles [6]; 50 mg/kg): Body tremors, mild to severe ataxia, and hypoactivity
clinical signs (purebred Beagles [6]; 75 mg/kg): Tremors (entire body, hind limbs, and/or head), mild to moderate ataxia, hypoactivity
effect on body weight (purebred Beagles [6]; dog, in vivo): minimal effect
food consumption (Crl:CD(SD)IGS BR rats; 150 mg/kg/day rats, Week 1): depression in food consumption
unscheduled deaths (Crl:CD(SD)IGS BR rats; 10, 30, 150 mg/kg/day): largely restricted to the 150 mg/kg/day groups
increases in Cmax and AUC(0-t) with dose (Crl:CD(SD)IGS BR rats; 10 to 150 mg/kg/day, except Cmax at 150 mg/kg/day on Day 14): greater than dose proportional
ophthalmic observations (Crl:CD(SD)IGS BR rats; any group): No ophthalmic lesions
clinical observations (purebred Beagles [7]; 3 mg/kg/day, Phase 1): no treatment-related clinical observations
survival (purebred Beagles [7]; Beagle, dog, in vivo, 14 days): survived until scheduled sacrifice
clinical pathology data (purebred Beagles [7]; Phase 1 and 2): no evidence in the clinical laboratory data of an effect
clinical observations (purebred Beagles [7]; Phase 2): treatment-related head tremors, ataxia, hypoactivity, and excessive salivation

pKi (M1 muscarinic receptor): < 5.00
pKi (M2 muscarinic receptor): < 5.00
pKi (M3 muscarinic receptor): < 5.00
SMILES: CC(C)(CN1CCC(=C2c3ccccc3COc3ccccc32)CC1)C(=O)O [Compound 69a]

SMILES: CN(C)CCCSC(=N)N [dimaprit]
pKi (H1 histamine receptor): < 5.00

From patent US7411069B2 (Hypnion, Inc., priority 2003, dated 2008)
